Data as given in paper PMC11997059, “Drugit: crowd-sourcing molecular design of non-peptidic VHL binders” (Nature Communications, 2025).
Values after ≈ are worked out from the molar mass of the structure shown. Read-outs that look alike come from different tables or passages of the source.

How the values were obtained:
[1] = NMR detected solubility in NMR buffer; format: physicochemical; details: 500 µM target, 20 mM TRIS, 100 mM NaCl, pH 7.5 in D2O, 1H NMR vs maleic acid
[2] = target: VCB (VHL-ElonginC-ElonginB) complex (Homo sapiens, UniProt P40337); test: TR-FRET VCB—VHL tracer binding assay
Sequence of VCB (VHL-ElonginC-ElonginB) complex (P40337 54-213): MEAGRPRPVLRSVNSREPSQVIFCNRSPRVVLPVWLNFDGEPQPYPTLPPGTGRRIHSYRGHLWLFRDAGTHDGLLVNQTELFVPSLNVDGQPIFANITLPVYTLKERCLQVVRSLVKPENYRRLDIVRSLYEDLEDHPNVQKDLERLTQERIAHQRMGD
Sequence of VCB (VHL-ElonginC-ElonginB) complex (Q15370 1-104 partner limits assumed): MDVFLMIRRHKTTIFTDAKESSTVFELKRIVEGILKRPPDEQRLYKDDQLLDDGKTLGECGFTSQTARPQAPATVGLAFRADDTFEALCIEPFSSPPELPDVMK
Sequence of VCB (VHL-ElonginC-ElonginB) complex (Q15369 17-112 partner limits assumed): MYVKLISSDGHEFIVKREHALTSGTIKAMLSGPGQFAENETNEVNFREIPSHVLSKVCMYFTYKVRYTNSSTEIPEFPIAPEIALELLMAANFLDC
Description: A time-resolved fluorescence resonance energy transfer (TR-FRET) VCB—VHL Tracer binding assay was used to identify compounds which inhibit the binding of a Cy5-labeled VHL binder (tracer) to VCB. […] For the chosen highest assay compound concentration of 100 µM, 150 nL of compound solution was transferred from a 10 mM DMSO compound stock solution. A series of eleven fivefold dilutions per compound was transferred to the assay plate. Compound dilutions were tested in duplicates. DMSO was added as a backfill to a total volume of 150 nL. The assay runs on a fully automated robotic system. 15 nL of the Cy5-labeled VHL Tracer (10 µM stock in 100% DMSO) was added to rows 1–23 using the Labcyte Echo 55x for transfer. About 15 nL of 100% DMSO was added to row 24.15 µL of VCB reaction mix in assay buffer (20 mM HEPES pH 7.3, 150 mM NaCl, and 0.005% Tween 20) including His-tagged VCB complex (10 nM final assay concentration) and Eu-anti 6xHis antibody (PerkinElmer AD0110, 3 nM final assay concentration) was added to rows 1-24. Plates are kept at room temperature. After 40 min incubation time, the signal is measured in a PerkinElmer Envision HTS Multilabel Reader using the TR-FRET LANCE Ultra specs from PerkinElmer. Each plate contains 16 wells of a negative control (diluted DMSO instead of a test compound; column 23 with Cy5-labeled VHL Tracer) and 16 wells of a positive control (diluted DMSO instead of a test compound; column 24 without Cy5-labeled VHL Tracer). As an internal control, an unlabeled VHL Tracer can be measured on each compound plate. IC50 values are calculated and analyzed with Boehringer Ingelheim’s MEGALAB IC50 application using a 4-parametric logistic model.

[3] = Solubility testing (aqueous, LCUV); format: physicochemical; details: aqueous buffer, kinetic from dmso stock, pH 6.8, final concentration 125 µg/mL
Description: Dilution into a 1:1 mixture of acetonitrile and water was used as a reference. After 24 h, the incubations were filtrated, and the filtrate was analyzed by LCUV.

[4] = Bidirectional permeability in Caco2 cells; format: in vitro ADME; details: human, Caco-2, 1 or 10 µM, pH 7.4; for Papp A→B: apical to basolateral
Description: Bidirectional permeability of test compounds across a Caco2 cell monolayer was measured as described previously. […] Cells were incubated with the compounds for up to 2 h, and samples from the opposite (receiver) compartment were taken at different time points.

[5] = target: 13C-methyl labeled VCB complex (Homo sapiens, UniProt P40337); test: Protein-observed NMR titration / hit validation; details: for induced CSPs, Val and Leu region (binding region): 200 µM 13C labeled VCB, 500 µM VH298 or reference molecule 2, 1000 µM of 1
Sequence of 13C-methyl labeled VCB complex (P40337 54-213): as the sequence (P40337 54-213) above
Sequence of 13C-methyl labeled VCB complex (Q15370 1-104 partner limits assumed): as the sequence (Q15370 1-104 partner limits assumed) above
Sequence of 13C-methyl labeled VCB complex (Q15369 17-112 partner limits assumed): as the sequence (Q15369 17-112 partner limits assumed) above
Description: Protein NMR experiments were performed on a Bruker 700 MHz spectrometer equipped with a 5 mm TCI cryoprobe in 3 mm NMR tubes filled with 180 µl of sample. 20 mM TRIS buffer at pH 7.5 and a 100 mM NaCl salt concentration, supplemented with 10% D2O for locking, was used for all experiments.

VHL = details: read-out: TR-FRET IC50 (value marked *: FP assay), ref as reported previously; cited from earlier work
[6] = read-out: TR-FRET IC50, Cy5-labeled VHL tracer, 10 nM His-tagged VCB, mean ± s.d., 1 as diastereomeric mixture

Structure (SMILES)	solubility [1] [µM]	IC50 [2, 6] [µM]	other results
Cc1ncsc1-c1ccc(CC(=O)Nc2c[nH]c3ccccc23)cc1 [compound 36]	< 10.0	13 ± 4.5	–
Cc1ncsc1-c1ccc(CNC(=O)Cc2ccc(-c3ccccc3)cc2CO)cc1 [compound 37]	< 10.0	> 100	–
Cc1ncsc1-c1ccc(CNC(=O)C2CC(O)CN(c3ccccn3)C2=O)cc1 (centres unmarked) [compound 1]	–	–	solubility ([1]; NMR buffer, aqueous buffer): > 500 µM; solubility at 24 h [3]: > 98 µg/mL; Papp A→B [4]: 23 ×10⁻⁶ cm/s; IC50 [2]: 264 ± 30 µM; Kd [5]: 182 ± 76 µM; induced CSPs, Val and Leu region (binding region) [5]: interact with the same binding region
O=S1(=O)Cc2ccccc2-c2[nH]nc(Br)c21 [compound 27]	> 500.0	> 500	–
Cc1ncsc1-c1ccc(CNC(=O)c2cc(-c3ccccc3)c[nH]c2=O)cc1 [compound 35]	< 10.0	–	–
Cc1ncsc1-c1ccc(CN(Cc2cc(O)cc(Br)c2)C(=O)OC(C)(C)C)cc1 [compound 39]	< 10.0	70.7 ± 0.4	–
Cc1ncsc1-c1ccc(CNC(=O)c2cc(=O)cc(Cl)[nH]2)cc1 [compound 2]	20.0 (≈ 7.2 µg/mL)	> 100	–
Cc1ncsc1-c1ccc(CNC(=O)c2c[nH]cc(-c3ccccc3)c2=O)cc1 [compound 5]	20.0 (≈ 8.03 µg/mL)	> 100	–
Cc1ncsc1-c1ccc(CNCc2cc(CO)nc(N(C)c3ccccc3)c2)cc1 [compound 6]	70.0 (≈ 30.1 µg/mL)	> 500	–
Cc1ncsc1-c1ccc(-c2ccc3nccc(C(N)=O)c3c2)cc1 [compound 16]	< 10.0	8.8 ± 0.8	–
Cc1ncsc1-c1ccc(CNC(=O)c2cc(=O)cc(-c3ccccc3)[nH]2)cc1 [compound 3]	280.0 (≈ 112 µg/mL)	13.8 ± 1.8	–
Cc1ncsc1-c1ccc(C(=O)Nc2cc(CO)cc3c2cnn3C)cc1 [compound 11]	180.0 (≈ 68.1 µg/mL)	> 500	–
Cc1ncsc1-c1ccc(CNC(=O)C2CC(O)CN(c3ccccn3)C2)cc1 (centres unmarked) [compound 19]	230.0 (≈ 94 µg/mL)	> 100	–
O=S1(=O)Cc2ccccc2-c2[nH]nc(NCc3ccccc3)c21 [compound 28]	360.0 (≈ 117 µg/mL)	244 ± 22	–
Cc1ncsc1-c1ccc(CNc2cc(CO)cc3c2cnn3C)cc1 [compound 9]	–	–	solubility ([1]; NMR buffer, aqueous buffer): 110 µM (≈ 40.1 µg/mL); IC50 [2]: > 100 µM
NC(=O)c1cn[nH]c1-c1cccc2ccccc12 [compound 43]	> 500.0	> 500	–
Cc1ncsc1-c1ccc(CNC(=O)[C@H]2C[C@H](O)Cc3ccccc32)cc1 [compound 18]	> 500.0	166 ± 77	–
Cc1ncsc1-c1ccc(CN(Cc2cc(Cl)nc(CO)c2)C(=O)OC(C)(C)C)cc1 [compound 7]	60.0 (≈ 27.6 µg/mL)	106 ± 5.2	–
O=S1(=O)Cc2ccccc2-c2[nH]ncc21 [compound 26]	–	–	solubility ([1]; NMR buffer, aqueous buffer): > 500 µM; IC50 [2]: 265 ± 74 µM
Cc1ncsc1-c1ccc(CNC(=O)c2cc(Br)c[nH]c2=O)cc1 [compound 34]	20.0 (≈ 8.09 µg/mL)	> 100	–
Cc1ncsc1-c1ccc(CNC(=O)c2cc(Br)cc(=O)[nH]2)cc1 [compound 41]	< 10.0	> 100	–

Structure (SMILES)	solubility [1] [µM]	IC50 [2, 6] [µM]	other results
Cc1ncsc1-c1ccc(CNC(=O)c2cc(C#N)cc(O)n2)cc1 [compound 42]	> 500.0	144 ± 10	–
Cc1ncsc1-c1ccc(CNC(=O)C2CC(O)CC(c3ccccc3)C2)cc1 (centres unmarked) [compound 23]	110.0 (≈ 44.7 µg/mL)	> 100	–
Cc1ncsc1-c1ccc(CNC(=O)[C@@H]2C[C@@H](O)Cc3ccccc32)cc1 [compound 17]	400.0 (≈ 151 µg/mL)	313 ± 135	–
Cc1ncsc1-c1ccc(CNC(=O)c2cc(O)cc(Br)c2)cc1 [compound 13]	20.0 (≈ 8.07 µg/mL)	> 100	–
Cc1ncsc1-c1ccc(CNCc2cc(O)cc(N(C)c3ccccc3)c2)cc1 [compound 40]	–	–	solubility ([1]; NMR buffer, aqueous buffer): < 10 µM; IC50 [2]: 67.8 ± 5.1 µM
Cc1ncsc1-c1ccc(CNc2cc(C(C)C)c[nH]c2=O)cc1 [compound 33]	–	–	solubility ([1]; NMR buffer, aqueous buffer): 50 µM (≈ 17 µg/mL); IC50 [2]: 71.7 ± 49.3 µM
Cc1ncsc1-c1ccc(CNC(=O)[C@H]2C[C@H](O)C[C@@H](c3ccccc3)C2)cc1 [compound 25]	–	–	solubility ([1]; NMR buffer, aqueous buffer): < 10 µM; IC50 [2]: > 100 µM
Cc1ncsc1-c1ccc(CNC(=O)c2cc(O)cc(-c3ccccc3)c2)cc1 [compound 14]	< 10.0	15.6 ± 1.2	–
Cc1cc(CC(=O)N2C[C@H](O)C[C@H]2C(=O)NCc2ccc(Cl)cc2)on1 [Reference molecule 2]	–	132 ± 38	solubility at 24 h [3]: > 88 µg/mL; efflux ratio [4]: 4.8; induced CSPs, Val and Leu region (binding region) [5]: interact with the same binding region; Kd ([5]; read-out: NMR KD, fit of dose-dependent chemical shifts of peaks #1 and #2, two independent titrations): 29 ± 1 µM
Cc1ncsc1-c1ccc(CNC(=O)[C@@H]2C[C@@H](O)CN2C(=O)[C@@H](NC(=O)C2(F)CC2)C(C)(C)C)cc1 [Reference molecule 1]	–	–	solubility at 24 h [3]: > 115 µg/mL; Papp A→B [4]: 2.9 ×10⁻⁶ cm/s; IC50 (VHL): […]
Cc1ncsc1-c1ccc(C(=O)Nc2cc(CO)cc3nn(C)cc23)cc1 [compound 12]	70.0 (≈ 26.5 µg/mL)	255 ± 45	–
Cc1ncsc1-c1ccc(CNC(=O)c2c[nH]cc(Br)c2=O)cc1 [compound 4]	–	> 100	solubility ([1]; NMR buffer, aqueous buffer): 40 µM (≈ 16.2 µg/mL)
CN(CCNCc1ccccc1)c1cnn[nH]1 [compound 8]	430.0 (≈ 99.5 µg/mL)	> 500	–
Cc1ncsc1-c1ccc(CNC(=O)[C@@H]2C[C@@H](O)CN2C(=O)[C@@H](NC(=O)C2(C#N)CC2)C(C)(C)C)cc1 [VH298, (2S,4R)-1-((S)-2-(1-Cyanocyclopropanecarboxamido)−3,3-dimethylbutanoyl)-4-hydroxy-N-(4-(4-methylthiazol-5-yl)benzyl)pyrrolidine-2-carboxamide]	–	–	induced CSPs, Val and Leu region (binding region) [5]: interact with the same binding region
O=C(Cc1ccc2cc(O)ccc2c1)Nc1cc[nH]n1 [compound 22]	–	–	solubility ([1]; NMR buffer, aqueous buffer): 350 µM (≈ 93.6 µg/mL); IC50 [2]: 315 ± 44 µM
Cc1ncsc1-c1ccc(CNCc2cc(O)cc(Br)c2)cc1 [compound 38]	80.0 (≈ 31.1 µg/mL)	85.7 ± 16.2	–
O=[N+]([O-])c1ccc2c(c1)CS(=O)(=O)c1cn[nH]c1-2 [compound 29]	–	175 ± 18	–
Cc1ncsc1-c1ccc(CNC(=O)[C@@H]2C[C@@H](O)C[C@H](c3ccccc3)C2)cc1 [compound 24]	–	–	solubility ([1]; NMR buffer, aqueous buffer): < 10 µM; IC50 [2]: > 100 µM
Cc1ncsc1-c1ccc(CNc2cc(CO)cc3nn(C)cc23)cc1 [compound 10]	–	–	solubility ([1]; NMR buffer, aqueous buffer): 240 µM (≈ 87.5 µg/mL); IC50 [2]: 167 ± 47 µM
Cc1ncsc1-c1ccc(-c2ccc3cccc(C(N)=O)c3c2)cc1 [compound 15]	–	–	solubility ([1]; NMR buffer, aqueous buffer): < 10 µM
